Consider 16 compounds from US20180319810A1, “SUBSTITUTED BRIDGED UREA ANALOGS AS SIRTUIN MODULATORS” (GlaxoSmithKline Intellectual Property (No.2) Limited, priority 2014, published 2018).

For the experiment, the target named is T1, SIRT1 (Homo sapiens, UniProt Q96EB6).
T1 sequence (Q96EB6 1-747): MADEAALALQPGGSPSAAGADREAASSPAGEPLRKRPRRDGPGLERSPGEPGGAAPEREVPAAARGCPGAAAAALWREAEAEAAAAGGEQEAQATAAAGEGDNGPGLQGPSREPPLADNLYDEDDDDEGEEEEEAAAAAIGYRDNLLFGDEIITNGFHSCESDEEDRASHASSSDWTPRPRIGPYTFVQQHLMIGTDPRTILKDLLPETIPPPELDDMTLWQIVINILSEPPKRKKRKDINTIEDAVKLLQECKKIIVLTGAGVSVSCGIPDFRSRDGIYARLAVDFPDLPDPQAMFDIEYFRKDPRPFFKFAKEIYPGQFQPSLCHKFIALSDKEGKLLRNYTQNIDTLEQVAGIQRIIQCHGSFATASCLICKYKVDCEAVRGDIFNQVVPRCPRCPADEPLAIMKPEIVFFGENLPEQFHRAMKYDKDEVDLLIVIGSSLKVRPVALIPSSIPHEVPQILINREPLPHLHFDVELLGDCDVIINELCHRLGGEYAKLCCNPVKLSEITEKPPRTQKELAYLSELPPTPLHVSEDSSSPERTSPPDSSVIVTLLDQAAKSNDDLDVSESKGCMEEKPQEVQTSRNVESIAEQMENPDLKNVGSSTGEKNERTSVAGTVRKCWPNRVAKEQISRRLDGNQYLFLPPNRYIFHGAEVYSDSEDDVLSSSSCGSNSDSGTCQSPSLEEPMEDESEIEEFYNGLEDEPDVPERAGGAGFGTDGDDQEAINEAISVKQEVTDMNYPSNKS
Put plainly: Trp mass spectrometry assay of SIRT1 activation. It is filed as biochemical. The following applies: Trp peptide Ac-R-H-K-K(Ac)-W-NH2 0.5 μM, 120 μM βNAD+, 10 nM SIRT1, 25 min, 25° C.

`O=C(Nc1ccnc(OC[C@H](O)CO)c1)N1c2nc(-c3cccc(C(F)(F)F)c3)ncc2N2CCC[C@H]1C2` [Example 90, (9S)—N-(2-((R)-2,3-dihydroxypropoxy)pyridin-4-yl)-2-(3-(trifluoromethyl)phenyl)-8,9-dihydro-6H-5,9-methanopyrimido[4,5-b][1,4]diazocine-10(7H)-carboxamide]: the “TRP Activity (EC1.5, concentration of compound required to increase SIRT1 activity by 50% over control)” value is on record as “A (EC1.5<1 μM)” and the “TRP MAX RESP (percent maximum fold activation relative to control)” value was “A (Fold activation ≥150%)”.

In the case of `O=C(Nc1cc(OC[C@@H](O)CO)ccn1)N1c2nc(-c3cccc(C(F)(F)F)c3)ncc2N2CCC[C@H]1C2` [Example 91, (9S)—N-(4-((S)-2,3-dihydroxypropoxy)pyridin-2-yl)-2-(3-(trifluoromethyl)phenyl)-8,9-dihydro-6H-5,9-methanopyrimido[4,5-b][1,4]diazocine-10(7H)-carboxamide], the “TRP Activity (EC1.5, concentration of compound required to increase SIRT1 activity by 50% over control)” value is on record as “A (EC1.5<1 μM)” and the “TRP MAX RESP (percent maximum fold activation relative to control)” value is “A (Fold activation ≥150%)”.

As to `O=C(Nc1cc(OC[C@H](O)CO)ncn1)N1c2nc(-c3cccc(C(F)(F)F)c3)ncc2N2CCC[C@H]1C2` [Example 92, (9S)—N-(6-((R)-2,3-dihydroxypropoxy)pyrimidin-4-yl)-2-(3-(trifluoromethyl)phenyl)-8,9-dihydro-6H-5,9-methanopyrimido[4,5-b][1,4]diazocine-10(7H)-carboxamide], the “TRP Activity (EC1.5, concentration of compound required to increase SIRT1 activity by 50% over control)” value was “A (EC1.5<1 μM)” and the “TRP MAX RESP (percent maximum fold activation relative to control)” value is “A (Fold activation ≥150%)”.

In the case of `O=C(Nc1ncc(OC[C@@H](O)CO)cn1)N1c2nc(-c3cccc(C(F)(F)F)c3)ncc2N2CCC[C@H]1C2` [Example 93, (9S)—N-(5-((S)-2,3-dihydroxypropoxy)pyrimidin-2-yl)-2-(3-(trifluoromethyl)phenyl)-8,9-dihydro-6H-5,9-methanopyrimido[4,5-b][1,4]diazocine-10(7H)-carboxamide], the “TRP Activity (EC1.5, concentration of compound required to increase SIRT1 activity by 50% over control)” value is reported as “B (EC1.5 1-25 μM)” and the “TRP MAX RESP (percent maximum fold activation relative to control)” value is “A (Fold activation ≥150%)”.

For `O=C(Nc1cncc(OC[C@@H](O)CO)c1)N1c2nc(-c3cccc(C(F)(F)F)c3)ncc2N2CCC[C@H]1C2` [Example 94, (9S)—N-(5-((S)-2,3-dihydroxypropoxy)pyridin-3-yl)-2-(3-(trifluoromethyl)phenyl)-8,9-dihydro-6H-5,9-methanopyrimido[4,5-b][1,4]diazocine-10(7H)-carboxamide], the “TRP Activity (EC1.5, concentration of compound required to increase SIRT1 activity by 50% over control)” value is “A (EC1.5<1 μM)” and the “TRP MAX RESP (percent maximum fold activation relative to control)” value is on record as “A (Fold activation ≥150%)”.

Take `O=C(Nc1cncc(OC[C@H](O)CO)n1)N1c2nc(-c3cccc(C(F)(F)F)c3)ncc2N2CCC[C@H]1C2` [Example 95, (9S)—N-(6-((R)-2,3-dihydroxypropoxy)pyrazin-2-yl)-2-(3-(trifluoromethyl)phenyl)-8,9-dihydro-6H-5,9-methanopyrimido[4,5-b][1,4]diazocine-10(7H)-carboxamide]: the “TRP Activity (EC1.5, concentration of compound required to increase SIRT1 activity by 50% over control)” value was “A (EC1.5<1 μM)” and the “TRP MAX RESP (percent maximum fold activation relative to control)” value is on record as “A (Fold activation ≥150%)”.

For `O=C(Nc1cc(OC[C@@H](O)CO)ncn1)N1c2nc(-c3cccc(C(F)(F)F)c3)ncc2N2CCC[C@H]1C2` [Example 96, (9S)—N-(6-((S)-2,3-dihydroxypropoxy)pyrimidin-4-yl)-2-(3-(trifluoromethyl)phenyl)-8,9-dihydro-6H-5,9-methanopyrimido[4,5-b][1,4]diazocine-10(7H)-carboxamide], the “TRP Activity (EC1.5, concentration of compound required to increase SIRT1 activity by 50% over control)” value is listed as “A (EC1.5<1 μM)” and the “TRP MAX RESP (percent maximum fold activation relative to control)” value is given as “A (Fold activation ≥150%)”.

For the compound `O=C(Nc1cnc(OC[C@H](O)CO)cn1)N1c2nc(-c3cccc(C(F)(F)F)c3)ncc2N2CCC[C@H]1C2` [Example 97, (9S)—N-(5-((R)-2,3-dihydroxypropoxy)pyrazin-2-yl)-2-(3-(trifluoromethyl)phenyl)-8,9-dihydro-6H-5,9-methanopyrimido[4,5-b][1,4]diazocine-10(7H)-carboxamide], the “TRP Activity (EC1.5, concentration of compound required to increase SIRT1 activity by 50% over control)” value is recorded as “A (EC1.5<1 μM)” and the “TRP MAX RESP (percent maximum fold activation relative to control)” value is on record as “A (Fold activation ≥150%)”.

In the case of `O=C(Nc1ccc(OC[C@@H](O)CO)cn1)N1c2nc(-c3cccc(C(F)(F)F)c3)ncc2N2CCC[C@H]1C2` [Example 98, (9S)—N-(5-((S)-2,3-dihydroxypropoxy)pyridin-2-yl)-2-(3-(trifluoromethyl)phenyl)-8,9-dihydro-6H-5,9-methanopyrimido[4,5-b][1,4]diazocine-10(7H)-carboxamide], the “TRP Activity (EC1.5, concentration of compound required to increase SIRT1 activity by 50% over control)” value was “A (EC1.5<1 μM)” and the “TRP MAX RESP (percent maximum fold activation relative to control)” value was “A (Fold activation ≥150%)”.

Consider `O=C(Nc1nccc(OC[C@H](O)CO)n1)N1c2nc(-c3cccc(C(F)(F)F)c3)ncc2N2CCC[C@H]1C2` [Example 100, (9S)—N-(4-((R)-2,3-dihydroxypropoxy)pyrimidin-2-yl)-2-(3-(trifluoromethyl)phenyl)-8,9-dihydro-6H-5,9-methanopyrimido[4,5-b][1,4]diazocine-10(7H)-carboxamide], for which the “TRP Activity (EC1.5, concentration of compound required to increase SIRT1 activity by 50% over control)” value was “A (EC1.5<1 μM)” and the “TRP MAX RESP (percent maximum fold activation relative to control)” value is recorded as “A (Fold activation ≥150%)”.

In the case of `O=C(Nc1ccc(OC[C@@H](O)CO)nc1)N1c2nc(-c3cccc(C(F)(F)F)c3)ncc2N2CCC[C@H]1C2` [Example 101, (9S)—N-(6-((S)-2,3-dihydroxypropoxy)pyridin-3-yl)-2-(3-(trifluoromethyl)phenyl)-8,9-dihydro-6H-5,9-methanopyrimido[4,5-b][1,4]diazocine-10(7H)-carboxamide], the “TRP Activity (EC1.5, concentration of compound required to increase SIRT1 activity by 50% over control)” value is “A (EC1.5<1 μM)” and the “TRP MAX RESP (percent maximum fold activation relative to control)” value is “A (Fold activation ≥150%)”.

Consider `O=C(Nc1cnc(OC[C@@H](O)CO)nc1)N1c2nc(-c3cccc(C(F)(F)F)c3)ncc2N2CCC[C@H]1C2` [Example 102, (9S)—N-(2-((S)-2,3-dihydroxypropoxy)pyrimidin-5-yl)-2-(3-(trifluoromethyl)phenyl)-8,9-dihydro-6H-5,9-methanopyrimido[4,5-b][1,4]diazocine-10(7H)-carboxamide], for which the “TRP Activity (EC1.5, concentration of compound required to increase SIRT1 activity by 50% over control)” value is recorded as “A (EC1.5<1 μM)” and the “TRP MAX RESP (percent maximum fold activation relative to control)” value is listed as “A (Fold activation ≥150%)”.

As for `O=C(Nc1nccc(OC[C@@H](O)CO)n1)N1c2nc(-c3cccc(C(F)(F)F)c3)ncc2N2CCC[C@H]1C2` [Example 103, (9S)—N-(4-((S)-2,3-dihydroxypropoxy)pyrimidin-2-yl)-2-(3-(trifluoromethyl)phenyl)-8,9-dihydro-6H-5,9-methanopyrimido[4,5-b][1,4]diazocine-10(7H)-carboxamide], the “TRP Activity (EC1.5, concentration of compound required to increase SIRT1 activity by 50% over control)” value is given as “B (EC1.5 1-25 μM)” and the “TRP MAX RESP (percent maximum fold activation relative to control)” value is “A (Fold activation ≥150%)”.

Consider `O=C(Nc1cnc(OC[C@H](O)CO)nc1)N1c2nc(-c3cccc(C(F)(F)F)c3)ncc2N2CCC[C@H]1C2` [Example 104, (9S)—N-(2-((R)-2,3-dihydroxypropoxy)pyrimidin-5-yl)-2-(3-(trifluoromethyl)phenyl)-8,9-dihydro-6H-5,9-methanopyrimido[4,5-b][1,4]diazocine-10(7H)-carboxamide], for which the “TRP Activity (EC1.5, concentration of compound required to increase SIRT1 activity by 50% over control)” value is “A (EC1.5<1 μM)” and the “TRP MAX RESP (percent maximum fold activation relative to control)” value is given as “A (Fold activation ≥150%)”.

In the case of `O=C(Nc1ncc(OC[C@H](O)CO)cn1)N1c2nc(-c3cccc(C(F)(F)F)c3)ncc2N2CCC[C@H]1C2` [Example 105, (9S)—N-(5-((R)-2,3-dihydroxypropoxy)pyrimidin-2-yl)-2-(3-(trifluoromethyl)phenyl)-8,9-dihydro-6H-5,9-methanopyrimido[4,5-b][1,4]diazocine-10(7H)-carboxamide], the “TRP Activity (EC1.5, concentration of compound required to increase SIRT1 activity by 50% over control)” value is reported as “A (EC1.5<1 μM)” and the “TRP MAX RESP (percent maximum fold activation relative to control)” value is reported as “A (Fold activation ≥150%)”.

`Cc1nc(-c2cccc(C(F)(F)F)c2)nc2c1N1CCC[C@@H](C1)N2C(=O)Nc1cnc(OC[C@H](O)CO)nc1` [Example 106, (9S)—N-(2-((R)-2,3-dihydroxypropoxy)pyrimidin-5-yl)-4-methyl-2-(3-(trifluoromethyl)phenyl)-8,9-dihydro-6H-5,9-methanopyrimido[4,5-b][1,4]diazocine-10(7H)-carboxamide]: the “TRP Activity (EC1.5, concentration of compound required to increase SIRT1 activity by 50% over control)” value is listed as “A (EC1.5<1 μM)” and the “TRP MAX RESP (percent maximum fold activation relative to control)” value is “A (Fold activation ≥150%)”.
